Experimental data published in PubChem BioAssay AID1963975 (Molecular Pharmacology Branch, DTP, NCI, 2024).
Each block holds one compound with its values, some of them ahead of it.

System: 624824-186-R-J2-PDC multicell spheroids, viability
Test: Anticancer human tumor 624824-186-R-J2-PDC patient-derived colon adenocarcinoma cell line growth inhibition [PI3K]
Settings: for IC50: curve of first compound; for viability, T/C: stronger effect = lower value
Excerpt: Combinatorial screen of targeted agents with the PI3K inhibitors inavolisib, alpelisib, duvelisib, and copanlisib in multi-cell type tumor spheroids
A high-throughput screen of multi-cell type tumor spheroids was designed to identify active combinations of targeted small molecules and PI3K pathway inhibitors. Complex spheroids include a stromal component modeled by human endothelial cells (HUVEC) and fibroblasts modeled by human mesenchymal stem cells (MSCs). The concentration ranges selected for each drug and investigational agent were based upon clinically achievable concentrations if the clinical Cmax of the agent was known.
Compounds. The drugs and investigational agents: inavolisib (NSC800729), alpelisib (NSC765974), duvelisib (NSC772469), copanlisib (NSC816437), ipatasertib (NSC767898), afuresertib (NSC778305), talazoparib (NSC767125), sapanisertib (NSC764658), selumetinib (NSC741078), tovorafenib (DAY101, NSC766906), vemurafenib (NSC761431), ravoxertinib (NSC781343), sotorasib (NSC818433), MRTX1133 (NSC 836407), abemaciclib (NSC 768073), palbociclib (NSC758247), venetoclax (NSC 766270), SY5609 (NSC837396), enzalutamide (NSC755605), and darolutamide (NSC825331), were obtained from the National Cancer Institute (NCI) Developmental Therapeutics Program Chemical Repository. The FDA-approved anticancer drug set is available from the NCI Developmental Therapeutics Program. […] The stock solutions were prepared in dimethyl sulfoxide (DMSO, Sigma-Aldrich, St. Louis, MO, cat. D2650) at 800-fold the tested concentration and stored at -70 degrees C prior to their use. All drugs and investigational agents were tested over a range starting from a high concentration at or near the clinical Cmax and decreasing in half-log increments. If the clinical Cmax for an agent had not been determined, the highest concentration tested was 10 microM.
Cell Culture. All cells were maintained in an incubator at 37 degrees C and 5% CO2 with 95% humidity. The PDC lines were cultured according to standard operating procedures established by the NCI PDMR (https://pdmr.cancer.gov/sops/default.htm). All PDCs were thawed and cultured in Matrigel-coated flasks prepared with a working solution of 1X Ham's F-12 nutrient mix, without supplementation (Invitrogen, Waltham, MA, cat. 11765054), 100 U/mL penicillin-streptomycin (Invitrogen, cat. 15140122), and 2.5% Matrigel (Corning Inc., Corning, NY, cat. 354248) for the first three passages. The 354836-022-R-J1-PDC, 475296-252-R-J1-PDC, and 997726-040-R-J2-PDC lines were cultured in 6A media, which includes advanced DMEM/F-12 (Thermo Fisher Scientific, cat. 12634028), 10 mM HEPES (Thermo Fisher Scientific, cat. 15630080), 1X GlutaMAX supplement (Thermo Fisher Scientific, cat. 35050061), 0.1 mg/mL primocin (InvivoGen, San Diego, CA, cat. ant-pm-2), 10% defined fetal bovine serum, heat inactivated (HyClone Laboratories Inc., Logan, UT, cat. SH30070.03HI), 50% L-WRN conditioned media (ATCC, cat. CRL-3276), 1.25 mM N-Acetyl-L-cysteine (Sigma-Aldrich, cat. A9165), 10 mM nicotinamide (Sigma-Aldrich, cat. N0636), 1X B-27 supplement (Thermo Fisher Scientific, cat. 17504044), 1X N-2 supplement (Thermo Fisher Scientific, cat. 17502048), and 10 microM Y-27632 dihydrochloride (Tocris Bioscience, Bristol, United Kingdom, cat. 1254). The 624824-186-R-J2-PDC line was cultured in 6C/Colon 1B media, which includes all 6A media components plus 50 ng/mL human EGF recombinant protein (Thermo Fisher Scientific, cat. PHG0311). […]

[1] = second compound 0.00316 µM, first compound 0.000316 µM
[2] = second compound 0.00316 µM, first compound 0.001 µM
[3] = second compound 0.00316 µM, first compound 0.00316 µM
[4] = second compound 0.00316 µM, first compound 0.01 µM
[5] = second compound 0.00316 µM, first compound 0.0316 µM
[6] = second compound 0.00316 µM, first compound 0.1 µM
[7] = second compound 0.01 µM, first compound 0.000316 µM
[8] = second compound 0.01 µM, first compound 0.001 µM
[9] = second compound 0.01 µM, first compound 0.00316 µM
[10] = second compound 0.01 µM, first compound 0.01 µM
[11] = second compound 0.01 µM, first compound 0.0316 µM
[12] = second compound 0.01 µM, first compound 0.1 µM
[13] = second compound 0.0316 µM, first compound 0.000316 µM
[14] = second compound 0.0316 µM, first compound 0.001 µM
[15] = second compound 0.0316 µM, first compound 0.00316 µM
[16] = second compound 0.0316 µM, first compound 0.01 µM
[17] = second compound 0.0316 µM, first compound 0.0316 µM
[18] = second compound 0.0316 µM, first compound 0.1 µM
[19] = second compound 0.1 µM, first compound 0.000316 µM
[20] = second compound 0.1 µM, first compound 0.001 µM
[21] = second compound 0.1 µM, first compound 0.00316 µM
[22] = second compound 0.1 µM, first compound 0.01 µM
[23] = second compound 0.1 µM, first compound 0.0316 µM
[24] = second compound 0.1 µM, first compound 0.1 µM
[25] = second compound 0.316 µM, first compound 0.000316 µM
[26] = second compound 0.316 µM, first compound 0.001 µM
[27] = second compound 0.316 µM, first compound 0.00316 µM
[28] = second compound 0.316 µM, first compound 0.01 µM
[29] = second compound 0.316 µM, first compound 0.0316 µM
[30] = second compound 0.316 µM, first compound 0.1 µM
[31] = second compound 1 µM, first compound 0.000316 µM
[32] = second compound 1 µM, first compound 0.001 µM
[33] = second compound 1 µM, first compound 0.00316 µM
[34] = second compound 1 µM, first compound 0.01 µM
[35] = second compound 1 µM, first compound 0.0316 µM
[36] = second compound 1 µM, first compound 0.1 µM
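Further: spheroids exposed to agents for 7 days before viability read.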
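Wherever viability, T/C is given: 100% = DMSO vehicle treated spheroids.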

IC50 (second compound 0.00316 µM): > 0.1 µM
IC50 (second compound 0.01 µM): > 0.1 µM
IC50 (second compound 0.0316 µM): > 0.1 µM
IC50 (second compound 0.1 µM): > 0.1 µM
IC50 (second compound 0.316 µM): > 0.1 µM
IC50 (second compound 1 µM): > 0.1 µM
Structure (SMILES): CC(=O)c1c(C)c2cnc(Nc3ccc(N4CCNCC4)cn3)nc2n(C2CCCC2)c1=O + CC(Nc1ccc2c(c1)OCCn1cc(N3C(=O)OCC3C(F)F)nc1-2)C(N)=O
viability, T/C [1]: 105%
viability, T/C [2]: 80.9%
viability, T/C [3]: 108%
viability, T/C [4]: 96.2%
viability, T/C [5]: 82.7%
viability, T/C [6]: 89.9%
viability, T/C [7]: 114%
viability, T/C [8]: 92.7%
viability, T/C [9]: 106%
viability, T/C [10]: 101%
viability, T/C [11]: 93.7%
viability, T/C [12]: 91.7%
viability, T/C [13]: 104%
viability, T/C [14]: 94.2%
viability, T/C [15]: 113%
viability, T/C [16]: 85.2%
viability, T/C [17]: 101%
viability, T/C [18]: 102%
viability, T/C [19]: 86.7%
viability, T/C [20]: 101%
viability, T/C [21]: 91.2%
viability, T/C [22]: 75.5%
viability, T/C [23]: 80.1%
viability, T/C [24]: 87.7%
viability, T/C [25]: 87.7%
viability, T/C [26]: 76.6%
viability, T/C [27]: 78.8%
viability, T/C [28]: 85.8%
viability, T/C [29]: 87%
viability, T/C [30]: 113%
viability, T/C [31]: 90%
viability, T/C [32]: 85.4%
viability, T/C [33]: 86.5%
viability, T/C [34]: 87.3%
viability, T/C [35]: 86.1%
viability, T/C [36]: 93.1%

IC50 (second compound 0.00316 µM): > 0.1 µM
IC50 (second compound 0.01 µM): > 0.1 µM
IC50 (second compound 0.0316 µM): > 0.1 µM
IC50 (second compound 0.1 µM): > 0.1 µM
IC50 (second compound 0.316 µM): > 0.1 µM
IC50 (second compound 1 µM): > 0.1 µM
Structure (SMILES): CC(C)n1nc(-c2ccc3oc(N)nc3c2)c2c(N)ncnc21 + CC(Nc1ccc2c(c1)OCCn1cc(N3C(=O)OCC3C(F)F)nc1-2)C(N)=O
viability, T/C [1]: 74%
viability, T/C [2]: 86.9%
viability, T/C [3]: 95.5%
viability, T/C [4]: 92.1%
viability, T/C [5]: 89.2%
viability, T/C [6]: 87.5%
viability, T/C [7]: 106%
viability, T/C [8]: 110%
viability, T/C [9]: 107%
viability, T/C [10]: 86.8%
viability, T/C [11]: 105%
viability, T/C [12]: 87.2%
viability, T/C [13]: 83.5%
viability, T/C [14]: 81.4%
viability, T/C [15]: 67.6%
viability, T/C [16]: 78.1%
viability, T/C [17]: 91.9%
viability, T/C [18]: 90.4%
viability, T/C [19]: 88.3%
viability, T/C [20]: 96.8%
viability, T/C [21]: 96.8%
viability, T/C [22]: 68.4%
viability, T/C [23]: 84.5%
viability, T/C [24]: 92.5%
viability, T/C [25]: 74.9%
viability, T/C [26]: 96.1%
viability, T/C [27]: 78.7%
viability, T/C [28]: 72.3%
viability, T/C [29]: 82.2%
viability, T/C [30]: 75.4%
viability, T/C [31]: 97%
viability, T/C [32]: 78.9%
viability, T/C [33]: 85%
viability, T/C [34]: 88.5%
viability, T/C [35]: 84.1%
viability, T/C [36]: 72%

IC50 (second compound 0.00316 µM): 10 µM
IC50 (second compound 0.01 µM): 8.49 µM
IC50 (second compound 0.0316 µM): 7.85 µM
IC50 (second compound 0.1 µM): 6.22 µM
IC50 (second compound 0.316 µM): 4.65 µM
IC50 (second compound 1 µM): 3.58 µM
Structure (SMILES): CCCS(=O)(=O)Nc1ccc(F)c(C(=O)c2c[nH]c3ncc(-c4ccc(Cl)cc4)cc23)c1F + CC(Nc1ccc2c(c1)OCCn1cc(N3C(=O)OCC3C(F)F)nc1-2)C(N)=O
viability, T/C [5]: 78.1%
viability, T/C [6]: 112%
viability, T/C (second compound 0.00316 µM, first compound 0.316 µM): 87.8%
viability, T/C (second compound 0.00316 µM, first compound 1 µM): 119%
viability, T/C (second compound 0.00316 µM, first compound 3.16 µM): 113%
viability, T/C (second compound 0.00316 µM, first compound 10 µM): 50%
viability, T/C [11]: 92.7%
viability, T/C [12]: 89.7%
viability, T/C (second compound 0.01 µM, first compound 0.316 µM): 73.6%
viability, T/C (second compound 0.01 µM, first compound 1 µM): 82.7%
viability, T/C (second compound 0.01 µM, first compound 3.16 µM): 109%
viability, T/C (second compound 0.01 µM, first compound 10 µM): 43.5%
viability, T/C [17]: 82.7%
viability, T/C [18]: 88.3%
viability, T/C (second compound 0.0316 µM, first compound 0.316 µM): 73.5%
viability, T/C (second compound 0.0316 µM, first compound 1 µM): 89.1%
viability, T/C (second compound 0.0316 µM, first compound 3.16 µM): 108%
viability, T/C (second compound 0.0316 µM, first compound 10 µM): 39.7%
viability, T/C [23]: 80%
viability, T/C [24]: 89.8%
viability, T/C (second compound 0.1 µM, first compound 0.316 µM): 81.9%
viability, T/C (second compound 0.1 µM, first compound 1 µM): 72.3%
viability, T/C (second compound 0.1 µM, first compound 3.16 µM): 76.3%
viability, T/C (second compound 0.1 µM, first compound 10 µM): 32.7%
viability, T/C [29]: 67.9%
viability, T/C [30]: 78.5%
viability, T/C (second compound 0.316 µM, first compound 0.316 µM): 71.7%
viability, T/C (second compound 0.316 µM, first compound 1 µM): 68%
viability, T/C (second compound 0.316 µM, first compound 3.16 µM): 62.1%
viability, T/C (second compound 0.316 µM, first compound 10 µM): 26.8%
viability, T/C [35]: 80.5%
viability, T/C [36]: 68.6%
viability, T/C (second compound 1 µM, first compound 0.316 µM): 68.7%
viability, T/C (second compound 1 µM, first compound 1 µM): 53.2%
viability, T/C (second compound 1 µM, first compound 3.16 µM): 63.1%
viability, T/C (second compound 1 µM, first compound 10 µM): 23.8%
